Consider one compound from patent US9809592B2, “Isopropyl triazolo pyridine compounds” (Eli Lilly and Company, priority 2014, dated 2017).

The structures appear in SMILES notation.

The target in one experiment is T1, PPARα (Homo sapiens, UniProt Q07869).
T1 construct: expressed in transfected cells; host or cells: CV1 (African green monkey kidney)
T1 sequence (Q07869 239-466 limits assumed): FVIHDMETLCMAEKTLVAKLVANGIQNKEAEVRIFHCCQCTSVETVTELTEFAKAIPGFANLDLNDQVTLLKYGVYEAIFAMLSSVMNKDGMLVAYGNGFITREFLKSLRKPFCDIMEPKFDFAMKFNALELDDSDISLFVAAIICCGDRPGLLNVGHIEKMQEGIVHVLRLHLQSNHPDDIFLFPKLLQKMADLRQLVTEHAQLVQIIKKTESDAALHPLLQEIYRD
As to the kind of experiment: Ga14 PPARα reporter functional assay in CV1 cells. In kind it is cell-based. The note with it: 24 hours incubation, luciferase. The source says: (§1) Because GPR40 is known to be activated by ligands to PPARγ, exemplified compounds are examined in Ga14 PPARα, Ga14 PPARδ, and PPARγ reporter assays to determine the selectivity of exemplified compounds. CV1 cells, which are derived from the renal tissue of an African green monkey, are transfected with various receptor and reporter plasmids using Fugene. For the Ga14 PPARα and PPARδ assays, a reporter plasmid containing five tandem copies of the yeast transcription protein Ga14 response element, cloned upstream of a firefly luciferase gene driven by the major late promoter of adenovirus, is transfected together with a Simian Virus 40 (SV40) driven plasmid constitutively expressing a hybrid protein containing the Ga14 DNA binding domain (DBD), and either the PPARα or PPARδ ligand binding domain. […] After 24 hours incubation with compounds, cells are lysed and luciferase activity is determined as a measure of receptor activation by luminescence. […] The maximum percent stimulation is determined versus maximum stimulation obtained with 10 μM of an appropriated PPAR agonist reference compound, 2-methyl-2-(4-{2-methyl-3-[2-(phenylcarbonyl)-4-(trifluoromethoxy)phenoxy]propoxy}phenoxy)propanoic acid. […]

Experiment [1] concerns the target T2, hGPR40 (Homo sapiens, UniProt O14842). As to the kind of experiment: Calcium Flux Primary Assay (FLIPR). The experiment is classed as cell-based. On the set-up: expressed in transfected cells; host or cells: HEK293. Conditions: mean, SEM. How it is done:
HEK293 cells over expressing the human GPR40 cDNA maintained in Dulbecco's modified Eagle's medium with F12 medium in 3:1 ratio supplemented with 10% FBS and 800 μg/ml geneticin at 37° C. and 5% CO2 are employed for the study. Agonist assays are performed using a Calcium 4 Dye assay kit (Molecular Devices) in the presence or absence of 0.1% fatty acid free BSA in the assay buffer (1×HBSS (Hank's Balanced Salt Solution) & 20 mM HEPES (4-(2-hydroxyethyl)-1-piperazineethanesulfonic acid). Receptor activation is measured as an increase in intracellular calcium using the Fluorometric Imaging Plate Reader (FLIPR). Maximum change in fluorescence over the base line is used to determine the agonist response. The EC50 value of the compound is calculated using Excel Fit software (version 4; IDBS) by plotting concentration vs relative fluorescence units (RFUs). […] (Mean±SEM; SEM=standard error of the mean.)
Target sequence in this assay (O14842 whole entry): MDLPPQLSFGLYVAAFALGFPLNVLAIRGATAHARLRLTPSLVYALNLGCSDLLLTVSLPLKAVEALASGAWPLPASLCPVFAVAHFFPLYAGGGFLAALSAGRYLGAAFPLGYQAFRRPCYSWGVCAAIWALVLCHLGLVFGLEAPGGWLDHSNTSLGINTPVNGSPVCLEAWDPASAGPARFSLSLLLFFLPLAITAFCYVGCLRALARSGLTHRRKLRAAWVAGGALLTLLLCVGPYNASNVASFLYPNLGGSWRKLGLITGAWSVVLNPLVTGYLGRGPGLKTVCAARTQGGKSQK

The target in the next experiment is T3, PPARδ (Homo sapiens, UniProt Q03181).
T3 construct: expressed in transfected cells; host or cells: CV1 (African green monkey kidney)
T3 sequence (Q03181 211-439 limits assumed): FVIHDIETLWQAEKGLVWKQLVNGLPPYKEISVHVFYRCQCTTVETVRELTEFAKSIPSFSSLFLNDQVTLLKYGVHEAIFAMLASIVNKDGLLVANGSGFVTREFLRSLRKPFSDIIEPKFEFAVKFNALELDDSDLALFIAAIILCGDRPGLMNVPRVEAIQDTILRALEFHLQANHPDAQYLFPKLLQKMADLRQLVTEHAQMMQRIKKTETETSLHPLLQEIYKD
As to the kind of experiment: Ga14 PPARδ reporter functional assay in CV1 cells. The experiment is classed as cell-based. The note with it: 24 hours incubation, luciferase.
Text: as §1

Another experiment deals with PPAR. The experiment is described as follows: PPAR α, δ, and γ functional assays (overall statement). In kind it is cell-based. The note with it: PPARα, PPARδ and PPARγ reporter assays; efficacy of <20% is considered negative.
Text: as §1

Another experiment addresses T4, human GPR40 (hGPR40) (Homo sapiens, UniProt O14842).
T4 construct: expressed in transfected cells; host or cells: HEK293 (membranes)
As to the kind of experiment: Radioligand competition binding assay with [3H]-TAK-875, HEK293 membranes. The note with it: 5 nM [3H]-TAK-875; Cheng-Prusoff; mean, SEM. The source says:
Competition curves are plotted as the percent specific inhibition versus concentration of compound and analyzed using a four parameter nonlinear regression fit with variable slope. […] See Cheng, Y. and Prusoff, W. H. (1973) “Relationship between the inhibition constant (Ki) and the concentration of inhibitor which causes 50 percent inhibition (IC50) of an enzymatic reaction”, Biochem Pharmacol 22(23):3099-108.

Another experiment addresses mGPR40 (Mus musculus, UniProt Q76JU9). The experiment is described as follows: Mouse beta-arrestin agonist assay with 1% FBS (U205 cells expressing mFFAR1). The experiment is classed as cell-based. The note with it: n=3. The text has this:
(§2) Human embryonic kidney (hEK293)-hFFAR1 cells are purchased from DiscoveRx. Human osteosarcoma (U205) cells expressing mFFAR1 are developed by DiscoveRX. These cells co-express the Prolink (PK)-tagged GPR40 and the Enzyme Acceptor (EA)-tagged beta-arrestin fusion proteins. If activation of the GPR40 stimulates beta-arrestin recruitment, it would force complementation of the beta galactosidase (B-gal) enzyme fragments, forming a B-gal enzyme that generates a chemiluminescent signal using the DiscoveRx PathHunter detection kit. Cells are incubated overnight at 5,000 cells/well in 384 well plates in culture media containing 1% FBS (fetal bovine serum). Serial diluted compounds in DMSO (2× dilutions to generate 20 concentrations) are step down diluted in culture media containing 1% FBS (fetal bovine serum) and added to cells with a final top concentration starting of 100 μM. After addition of compounds, cells are incubated for 90 min at 37° C. in 5% CO2 incubator, and DiscoveRX kit detection reagents are added. Measurement of the chemiluminescent signal is ascertained with the Envision reader, after a 1-hour incubation at room temperature. Data are fit to a 4 parameter-fit logistics to determine EC50 values, % activity is measured versus maximum response to an internal standard GPR40 agonist standard, TAK875, at 1 μM.

A further experiment concerns the target T5, Human GPR40 membranes (Homo sapiens, UniProt O14842).
T5 construct: expressed in transfected cells; host or cells: HEK293 (membranes)
The experiment is described as follows: Competition binding kinetics, receptor residence time. The note with it: 6-8 nM [3H] TAK875; mean, SEM, n=4; read-out: GPR40 Residence time, τ. The protocol: The association and dissociation rates of unlabeled compounds are quantified using the method described by Motulsky, H. J. and L. C. Mahan (1984), “The kinetics of competitive radioligand binding predicted by the law of mass action” Mol Pharm 25(1): 1-9. Human GPR40 membranes are incubated at various time points with 6-8 nM [^3H] TAK875 in the absence or presence of 1× Ki, 3× Ki, or 10× Ki unlabeled compound. Separation of bound and free radioligand is performed using rapid-wash filtration onto glass fiber filters and counted in a liquid scintillation counter. Rates are calculated by fitting the data to the kinetics of competitive binding model in GraphPad Prism 6, version 6.03 for Windows, GraphPad Software, La Jolla Calif. USA, www.graphpad.com.

Another experiment addresses T6, PPARγ (Homo sapiens, UniProt P37231).
T6 construct: expressed in transfected cells; host or cells: CV1 (African green monkey kidney)
T6 sequence (P37231 1-505): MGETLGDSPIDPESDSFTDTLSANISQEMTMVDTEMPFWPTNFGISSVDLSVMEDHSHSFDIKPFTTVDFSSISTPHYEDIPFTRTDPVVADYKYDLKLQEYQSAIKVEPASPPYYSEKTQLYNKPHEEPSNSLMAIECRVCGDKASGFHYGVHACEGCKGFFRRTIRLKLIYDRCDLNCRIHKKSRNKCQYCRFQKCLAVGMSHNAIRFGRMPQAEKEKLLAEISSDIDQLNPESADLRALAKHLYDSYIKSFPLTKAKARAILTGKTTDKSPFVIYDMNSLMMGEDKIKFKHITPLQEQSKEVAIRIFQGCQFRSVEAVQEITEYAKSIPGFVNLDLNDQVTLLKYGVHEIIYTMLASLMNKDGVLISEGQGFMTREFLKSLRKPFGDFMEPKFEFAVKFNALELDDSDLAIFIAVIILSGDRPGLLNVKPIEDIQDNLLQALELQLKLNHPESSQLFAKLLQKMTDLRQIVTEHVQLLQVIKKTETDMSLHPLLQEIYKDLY
T6 sequence (P19793 1-462 partner): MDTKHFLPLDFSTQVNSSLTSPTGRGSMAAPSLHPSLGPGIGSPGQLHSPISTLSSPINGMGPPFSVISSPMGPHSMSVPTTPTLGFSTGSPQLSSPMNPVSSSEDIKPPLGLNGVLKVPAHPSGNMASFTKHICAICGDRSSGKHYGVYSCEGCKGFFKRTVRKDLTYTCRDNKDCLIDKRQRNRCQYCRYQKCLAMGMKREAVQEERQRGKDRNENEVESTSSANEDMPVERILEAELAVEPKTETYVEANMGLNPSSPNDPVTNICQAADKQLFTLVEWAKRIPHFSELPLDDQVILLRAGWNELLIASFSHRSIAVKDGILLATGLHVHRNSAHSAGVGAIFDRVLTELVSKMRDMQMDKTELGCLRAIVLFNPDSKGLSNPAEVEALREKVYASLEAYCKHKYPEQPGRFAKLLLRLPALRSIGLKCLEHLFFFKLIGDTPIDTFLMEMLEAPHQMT
As to the kind of experiment: PPARγ reporter functional assay in CV1 cells. Conditions: PPARγ and RXRα, 24 hours incubation, luciferase. In kind it is cell-based.
Text: as §1

Experiment [2] deals with T2, hGPR40. The experiment is described as follows: Human beta-arrestin agonist assay with 1% FBS (hEK293-hFFAR1 cells). On the set-up: host or cells: HEK293 (hEK293-hFFAR1). The experiment is classed as cell-based. Conditions: n=2.
Text: as §2
Target sequence in this assay (O14842 whole entry): as the sequence (O14842 whole entry) above
Target sequence in this assay (P32121 whole entry partner): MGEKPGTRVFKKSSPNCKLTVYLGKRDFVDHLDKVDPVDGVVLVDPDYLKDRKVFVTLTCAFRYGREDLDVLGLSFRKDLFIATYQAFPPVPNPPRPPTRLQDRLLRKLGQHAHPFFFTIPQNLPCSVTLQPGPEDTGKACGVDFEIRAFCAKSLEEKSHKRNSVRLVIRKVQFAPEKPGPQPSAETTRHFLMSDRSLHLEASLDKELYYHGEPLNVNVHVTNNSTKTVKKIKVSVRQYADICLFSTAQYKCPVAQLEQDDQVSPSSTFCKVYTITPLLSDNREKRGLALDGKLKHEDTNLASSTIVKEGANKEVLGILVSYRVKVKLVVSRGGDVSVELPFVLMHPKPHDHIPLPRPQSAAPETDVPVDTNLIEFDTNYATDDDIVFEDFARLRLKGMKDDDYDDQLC

Where [3] appears, read: versus maximum response to TAK875 at 1 μM.

Chain of mGPR40 (Q76JU9 whole entry, the tested form may be a part): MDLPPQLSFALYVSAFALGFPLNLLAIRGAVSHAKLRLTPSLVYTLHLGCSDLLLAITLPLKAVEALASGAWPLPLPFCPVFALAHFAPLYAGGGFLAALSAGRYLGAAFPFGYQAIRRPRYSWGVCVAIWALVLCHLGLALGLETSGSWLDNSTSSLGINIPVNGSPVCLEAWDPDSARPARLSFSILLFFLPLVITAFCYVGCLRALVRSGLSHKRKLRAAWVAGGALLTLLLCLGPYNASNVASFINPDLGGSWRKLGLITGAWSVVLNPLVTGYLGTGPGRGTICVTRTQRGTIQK
Chain of mGPR40 (P32121 whole entry partner, the tested form may be a part): as the sequence (P32121 whole entry partner) above
T5 sequence (O14842 whole entry): as the sequence (O14842 whole entry) above
T4 sequence (O14842 whole entry): as above

In the case of `CC#C[C@@H](CC(=O)O)c1ccc(OCc2cc(-c3c(C)cc(OC)cc3C)c3nc(C(C)C)nn3c2)cc1` [Example 1, (S)-3-{4-[2-Isopropyl-8-(4-methoxy-2,6-dimethyl-phenyl)-[1,2,4]triazolo[1,5-a]pyridin-6-ylmethoxy]-phenyl}-hex-4-ynoic acid], the EC50 was above 10000 nM on PPARα; 247 nM on hGPR40 [1] (HEK293 cells over expressing human GPR40); 4000 nM at PPARδ; 4.87 nM at mGPR40 (1% FBS, 90 min, mean, SEM, read-out: mGPR40 b-arrestin EC50); 2260 nM at PPARγ; 30.6 nM at hGPR40 [2] (1% FBS, 90 min, mean, SEM, read-out: hGPR40 b-arrestin EC50). The efficacy on hGPR40 [1] (maximal response compared to natural ligand linoleic acid) is recorded as 78.7%. Moreover, the “PPAR activity / efficacy (in words)” value in the experiment with PPAR was “weak PPAR activity”. Further, at human GPR40 (hGPR40), the affinity corresponds to a Ki of 15.8 nM. The “% stimulation max (FA), mGPR40 b-arrestin” value at mGPR40 (setting [3]) worked out at 149%. The residence time on Human GPR40 membranes turned out to be 169 min. Besides, on hGPR40 [2] (setting [3]), the “% stimulation max (FA), hGPR40 b-arrestin” value is on record as 170%.
